The target in one assay is LSD1 (Homo sapiens (Human), UniProt O60341). Description: In vitro enzyme inhibition assay - LSD1 (HTRF). In kind it is biochemical. (In general: TR-FRET usually uses a lanthanide donor and a delayed reading to cut background.)
The next assay has as its system NCI-H69 cells. Description: In vitro cell inhibition assay - NCI-H69 cell proliferation (CellTiter-Glo). In kind it is cell-based. The procedure, abridged: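 Cells seeded at 1×10^3 per well and incubated overnight at 37° C., 5% CO2, then treated with 8-point 5-fold compound dilutions in RPMI-640 with 20% FBS for 7 days. Viable cells measured by CellTiter-Glo luminescence; IC50 fitted from inhibition relative to no-inhibitor and no-cell controls.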
A general note: In ATP-based viability assays light output follows the ATP content of the culture.

Another assay concerns DU145 cells. Description: In vitro cell inhibition assay - DU145 cell proliferation (CellTiter-Glo). In kind it is cell-based. As to the method: 5. In Vitro Cell Inhibition Assay—DU145 Cell Proliferation
The inhibitory effect of the compounds on cell proliferation was assessed by detecting the number of viable cells using the CellTiter-Glo® reagent. DU145 cells in the logarithmic growth phase were collected and inoculated into transparent bottom 96-well plates at a density 1×10^3 cells per well with 100 μL medium, and incubated at 37° C., 5% CO2 overnight. The compounds were sequentially diluted in a 5-fold concentration gradient with DMSO to obtain 8 different concentrations. These were then diluted with RPMI-640 (containing 10% FBS) cell culture medium to obtain the compound working solution (2×), which was added to the cell supernatant at 100 μL per well. The incubation continued for 6 days at 37° C., 5% CO2. The plate was then removed and equilibrated at room temperature (25° C.) along with the CellTiter-Glo® mixing reagent for 10-30 minutes. After centrifugation, 120 μL of the culture medium was carefully aspirated from each well, and 60 μL of CellTiter-Glo® reagent was added. The cells were thoroughly mixed with the CellTiter-Glo® mixing reagent using a microplate shaker for 2 min. and then incubated at room temperature for 10 min. The 96-well plate was subsequently placed on a multifunctional microplate reader to record the Luminescence values (RLU).
The inhibition rate was calculated using the following formula: […]
Note: ‘Negative’ refers to the group without inhibitors; ‘Blank’ refers to the group without cells.
The IC50 value was determined by fitting the inhibition rate by GraphPad Prism software.

The next assay deals with pan-HDAC. Description: In vitro enzyme inhibition assay - HDAC (HDAC-Glo I/II), pan-HDAC. It is filed as biochemical. The procedure, abridged:
(§1)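 Inhibition was measured with the HDAC-Glo I/II luminescent assay, testing compound as an 8-point, 5-fold dilution series from a 1 mM DMSO stock. Luminescence (RLU) was normalized to no-inhibitor and no-enzyme controls, and IC50 was derived by four-parameter variable-slope fitting.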

Another assay has as its system NCI-H1417 cells. Description: In vitro cell inhibition assay - H1417 cell proliferation (CellTiter-Glo). It is filed as cell-based. The procedure, abridged:
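Cells exposed to 8 compound concentrations (5-fold dilutions) in BEGM with 10% FBS for 7 days at 37° C., 5% CO2. Viable cells measured by CellTiter-Glo luminescence; inhibition versus no-inhibitor and no-cell controls, IC50 fitted.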

The target of another assay is HDAC8 (Homo sapiens (Human), UniProt Q9BY41). Description: In vitro enzyme inhibition assay - HDAC (HDAC-Glo I/II), HDAC8. In kind it is biochemical. The settings on record: read-out: HDAC IC50 (nM) HDAC 8. The procedure, abridged: as §1
Sequence of HDAC8 (Q9BY41 whole entry): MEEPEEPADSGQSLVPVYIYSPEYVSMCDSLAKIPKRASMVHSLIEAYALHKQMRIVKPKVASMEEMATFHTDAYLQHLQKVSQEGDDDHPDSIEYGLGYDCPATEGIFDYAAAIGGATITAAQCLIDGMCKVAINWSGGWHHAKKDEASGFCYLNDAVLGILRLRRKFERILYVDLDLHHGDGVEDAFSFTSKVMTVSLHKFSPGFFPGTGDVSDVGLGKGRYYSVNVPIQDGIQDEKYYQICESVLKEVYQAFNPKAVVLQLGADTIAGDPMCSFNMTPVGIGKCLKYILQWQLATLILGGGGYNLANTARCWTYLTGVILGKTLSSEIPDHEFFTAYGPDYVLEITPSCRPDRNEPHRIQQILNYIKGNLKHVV
The mark [1] stands for this setting: Homo sapiens, NCI-H69, H69 small cell lung cancer cell proliferation.
Where [2] appears, read: Homo sapiens, DU-145, Du145 prostate cancer cell proliferation.
Where [3] appears, read: Homo sapiens, NCI-H1417, H1417 small cell lung cancer cell proliferation.
The mark [4] stands for this setting: H69 small cell lung cancer cell proliferation.
[5] abbreviates: Du145 prostate cancer cell proliferation.
Setting [6] is: H1417 small cell lung cancer cell proliferation.

This is an account of results in US20250304549A1, “HYDROXYAMIDE DERIVATIVE AND USE THEREOF” (SICHUAN HUIYU PHARMACEUTICAL CO., LTD., priority 2022, published 2025).

Counter-ions that a name gives are not always drawn. Some results are limits rather than exact numbers.

What is called IC50 is the concentration needed to halve the response being measured.

Take `CN(C)c1ncc(-c2c(OCCCCCCC(=O)NO)cc(N3CCC(N)CC3)nc2-c2ccc(C#N)c(F)c2)cn1` [Example 13, 7-((6-(4-Aminopiperidin-1-yl)-2-(4-cyano-3-fluorophenyl)-3-(2-(dimethylamino)pyrimidin-5-yl)pyridin-4-yl)oxy)-N-hydroxyheptanamide formate]: the IC50 against LSD1 stood at 1.95 nM; with NCI-H69 cells (setting [1]) it was 775 nM; with DU145 cells (setting [2]), 2770 nM; at pan-HDAC, 3.32 nM; in the assay on NCI-H1417 cells (setting [3]) it was 332 nM.

Turning to `COc1ccc(-c2c(OCCCCCCC(=O)NO)cc(N3CCC(N)CC3)nc2-c2ccc(C#N)c(C)c2)cc1O` [Example 16, 7-((6-(4-Aminopiperidin-1-yl)-2-(4-cyano-3-methylphenyl)-3-(3-hydroxy-4-methoxyphenyl)pyridin-4-yl)oxy)-N-hydroxyheptanamide hydrochloride], the 50% inhibitory concentration (IC50) was 33.2 nM against LSD1; 3640 nM in the assay with NCI-H69 cells (setting [1]); 3700 nM with DU145 cells (setting [2]); 4.23 nM at pan-HDAC; over 1000 nM in the assay on NCI-H1417 cells (setting [3]).

As for `COc1ccc(-c2c(-c3ccc(C#N)c(F)c3)nc(N3CCC(NCc4ccc(/C=C/C(=O)NO)cc4)CC3)n3ccnc23)cc1O` [Example 70, (E)-3-(4-(((1-(7-(4-Cyano-3-fluorophenyl)-8-(3-hydroxy-4-methoxyphenyl)imidazo[1,2-c]pyrimidin-5-yl)piperidin-4-yl)amino)methyl)phenyl)-N-hydroxyacrylamide formate], the IC50 is 1.18 nM against LSD1; 214 nM in the assay with NCI-H69 cells (setting [1]); 26.5 nM at HDAC8; 262 nM in the assay on DU145 cells (setting [2]); 76.6 nM against pan-HDAC; 1.44 nM in the assay with NCI-H1417 cells (setting [3]).

As for `COc1ccc(-c2cnc(N3CCC(NCc4ccc(/C=C/C(=O)NO)cc4)CC3)nc2-c2ccc(C#N)c(F)c2)cc1O` [Example 71, (E)-3-(4-(((1-(4-(4-cyano-3-fluorophenyl)-5-(3-hydroxy-4-methoxyphenyl)pyrimidin-2-yl)piperidin-4-yl)amino)methyl)-N-hydroxyacrylamide formate], the IC50 on LSD1 stood at 4.61 nM; in the assay on NCI-H69 cells (setting [4]), 99 nM; on HDAC8, 125 nM; in the assay on DU145 cells (setting [5]), 431 nM; on pan-HDAC, 51.8 nM; with NCI-H1417 cells (setting [6]), 42.3 nM.

As for `COc1ccc(-c2ccc(C(=O)N3CC[C@H](NCc4ccc(/C=C/C(=O)NO)cc4)C3)cc2-c2ccc(C#N)c(F)c2)cc1O` [Example 72, (S,E)-3-(4-(((1-(4″-cyano-3″-fluoro-3-hydroxy-4-methoxy-[1,1′:2′,1″-terphenyl]-4′-carbonylpyrrolidin-3-yl)amino)methyl)phenyl)-N-hydroxyacrylamide formate], the IC50 against LSD1 was found to be 8.42 nM; in the assay on NCI-H69 cells (setting [4]), 970 nM; at HDAC8, 160 nM; in the assay with DU145 cells (setting [5]), 2750 nM; on pan-HDAC it was 110 nM; in the assay on NCI-H1417 cells (setting [6]), 166 nM.

For `COc1cc(-c2ccc(C(=O)N3CC[C@H](NCc4ccc(/C=C/C(=O)NO)cc4)C3)cc2-c2ccc(C#N)c(F)c2)ccc1O` [Example 73, (S,E)-3-(4-(((1-(4″-Cyano-3″-fluoro-4-hydroxy-3-methoxy-[1,1]: 2′,1″-terphenyl]-4′-carbonyl)pyrrolidin-3-yl)amino)methyl)phenyl)-N-hydroxyacrylamide formate], the IC50 at LSD1 came to 21.2 nM; in the assay with NCI-H69 cells (setting [1]) it was 678 nM; at HDAC8, 152 nM; in the assay with DU145 cells (setting [2]), 2230 nM; against pan-HDAC, 186 nM; in the assay on NCI-H1417 cells (setting [3]), 125 nM.

In the case of `COc1ccc(-c2ccc(CN3CC[C@H](NCc4ccc(/C=C/C(=O)NO)cc4)C3)cc2-c2ccc(C#N)c(F)c2)cc1O` [Example 74, (S,E)-3-(4-(((1-((4″-cyano-3″-fluoro-3-hydroxy-4-methoxy-[1,1:2′,1″-terphenyl]-4′-yl)methyl)pyrrolidin-3-yl)amino)methyl)phenyl)-N-hydroxyacrylamide formate], the 50% inhibitory concentration (IC50) against LSD1 was determined as 2.26 nM; with NCI-H69 cells (setting [4]), 205 nM; on HDAC8, 207 nM; with DU145 cells (setting [5]) it was 553 nM; against pan-HDAC, 23.1 nM; in the assay on NCI-H1417 cells (setting [6]), 40.1 nM.

In the case of `COc1cc(-c2ccc(CN3CC[C@H](NCc4ccc(/C=C/C(=O)NO)cc4)C3)cc2-c2ccc(C#N)c(F)c2)ccc1O` [Example 75, (S,E)-3-(4-(((1-((4″-Cyano-3″-fluoro-4-hydroxy-3-methoxy-[1,1:2,1″-terphenyl]-4′-yl)methyl)pyrrolidin-3-yl)amino)methyl)phenyl)-N-hydroxyacrylamide formate], the IC50 is 129 nM on LSD1; 403 nM in the assay with NCI-H69 cells (setting [1]); 212 nM on HDAC8; 677 nM in the assay with DU145 cells (setting [2]); 76.6 nM on pan-HDAC; 473 nM with NCI-H1417 cells (setting [3]).

For the molecule `COc1ccc(-c2cnc(N3CCC(Nc4cccc(/C=C/C(=O)NO)c4)CC3)c(C#N)c2-c2ccc(C#N)c(F)c2)cc1O` [Example 81, (E)-3-(3-((1-(3-cyano-4-(4-cyano-3-fluorophenyl)-5-(3-hydroxy-4-methoxyphenyl)pyridin-2-yl)piperidin-4-yl)amino)phenyl)-N-hydroxyacrylamide formate], the IC50 against LSD1 was found to be 140 nM; with NCI-H69 cells (setting [1]), 516 nM; on HDAC8, 695 nM; in the assay on DU145 cells (setting [2]) it was 776 nM; on pan-HDAC it was 1220 nM; in the assay on NCI-H1417 cells (setting [3]) it was 73.9 nM.

For `COc1ccc(-c2cnc(N3CCC(Nc4ncc(C(=O)NO)cn4)CC3)c(C#N)c2-c2ccc(C#N)c(F)c2)cc1O` [Example 83, 2-((1-(3-Cyano-4-(4-cyano-3-fluorophenyl)-5-(3-hydroxy-4-methoxyphenyl)pyridin-2-yl)piperidin-4-yl)amino)-N-hydroxypyrimidine-5-carboxamide formate], the IC50 on LSD1 was 8.51 nM; in the assay with NCI-H69 cells (setting [1]), 1140 nM; at HDAC8 it was 374 nM; with DU145 cells (setting [2]), 2820 nM; on pan-HDAC, 438 nM; with NCI-H1417 cells (setting [3]), 76.8 nM.

In the case of `COc1ccc(-c2cnc(N3CCC(N)(c4ccc(/C=C/C(=O)NO)cc4)CC3)c(C#N)c2-c2ccc(C#N)c(F)c2)cc1O` [Example 85, (E)-3-(4-(4-amino-1-(3-cyano-4-(4-cyano-3-fluorophenyl)-5-(3-hydroxy-4-methoxyphenyl)pyridin-2-yl))piperidin-4-yl)phenyl)-N-hydroxyacrylamide formate], the IC50 amounted to 209 nM against LSD1; 407 nM with NCI-H69 cells (setting [4]); 542 nM on HDAC8; 1550 nM in the assay on DU145 cells (setting [5]); 110 nM against pan-HDAC; 256 nM in the assay on NCI-H1417 cells (setting [6]).

Take `COc1cc(-c2cnc(N3CCC(NCCc4cccc(/C=C/C(=O)NO)c4)CC3)c(C#N)c2-c2ccc(C#N)c(F)c2)ccc1O` [Example 92, (E)-3-(3-(2-(1-(3-Cyano-4-(4-cyano-3-fluorophenyl)-5-(4-hydroxy-3-methoxyphenyl)pyridin-2-yl)piperidin-4-yl)amino)ethyl) phenyl)-N-hydroxyacrylamide formate]: the IC50 at LSD1 was 1.41 nM; with NCI-H69 cells (setting [1]) it was 497 nM; at HDAC8, 623 nM; in the assay on DU145 cells (setting [2]), 2370 nM; against pan-HDAC, 340 nM; in the assay with NCI-H1417 cells (setting [3]), 63 nM.

Take `COc1cc(-c2cnc(N3CC4CC3CC4NCc3ccc(/C=C/C(=O)NO)cc3)c(C#N)c2-c2ccc(C#N)c(F)c2)ccc1O` (stereo not shown) [Example 94, (E)-3-(4-(2-(3-Cyano-4-(4-cyano-3-fluorophenyl)-5-(4-hydroxy-3-methoxyphenyl)pyridin-2-yl)-2-azabicyclo[2.2.1]heptan-5-yl)amino)methyl) phenyl)-N-hydroxyacrylamide formate]: the IC50 was determined as 173 nM against LSD1; 190 nM in the assay with NCI-H69 cells (setting [4]); 256 nM on HDAC8; 495 nM in the assay with DU145 cells (setting [5]); 110 nM at pan-HDAC; 160 nM in the assay on NCI-H1417 cells (setting [6]).
